# Laboratory results taken from article PMC9241057, “Ru(II)arene(N^N bpy/phen)-based RAPTA complexes for in vitro anti-tumour activity in human glioblastoma cancer cell lines and in vivo toxicity studies in a zebrafish model” (RSC Advances, 2022).
# What was measured:
# EtBr-bound DNA (Ct-DNA) = assay: EtBr displacement assay (fluorescence); assay type: binding, calf; details: for Ksv, Stern-Volmer quenching constant: EtBr-bound DNA; for Kapp, apparent DNA binding constant: competitive displacement of EtBr
# Experimental: Ethidium bromide displacement assay […]
# bromide (EtBr) displacement experiment was used.3 Using ethidium bromide (EtBr) as a spectral probe in 5 mM Tris-HCl buffer, the apparent binding constant (K app) of the RAPTA complex 4c to Ct-DNA was determined at pH = 7.4. Because the fluorescence of EtBr was quenched by the solvent molecules, it was unable to show any fluorescence in its free state.
# However, in the presence of Ct-DNA, its fluorescence intensity began to increase, indicating that EtBr binds to DNA […] in an intercalative manner. With increasing concentrations of […]
# complexes displaced EtBr from CT-DNA grooves and were linked to the DNA base pairs itself. The values of the apparent binding constant (K app) were obtained by using the equation […]
# Kapp × [Complex]50 = kEtBr × [EtBr]⋯⋯⋯(iii)
# Where KEtBr is the EtBr binding constant (K EtBr = 1.0 x 107 M-1), and [EtBr] = 8 x 10^-6 M.
# Stern-Volmer equation was followed for quantitative determination of the Stern-Volmer quenching constant (K SV).4 Origin (8.5) software was used to plot the fluorescence data to obtain linear plot of I0/I vs. [complex]. The value of KSV was calculated from the following […]
# Where I0 = fluorescence intensity in absence of complex and I = fluorescence intensities in presence of complex of concentration [Q]. […]
# VEGF = VEGF Elisa test; assay type: cell-based, human; details: U87MG and T98G, 1 to 20 μM
# Description: The vascular endothelial growth factor (VEGF), formerly known as the vascular permeability factor (VPF) is a signal protein produced by many cells, which stimulates blood vessel formation. In hypoxic conditions when blood circulation is insufficient in the cells, VEGF restores the oxygen supply to tissues.[26] Proper blood supply is required for solid tumour proliferation beyond a limited size; therefore, cancers that can express VEGF are able to grow and metastasize. Two cancer cells, i.e. U87MG and T98G were incubated with increased concentrations (1 to 20 μM) of 4c and 4d and the % of inhibition of VEGF was estimated by an ELISA reader.
# The capture antibody was diluted to the working concentration in PBS without the carrier protein for coating the 96-well plate. The plate was sealed and incubated overnight at room temperature. It was then aspirated and washed three times with wash buffer and blocked by adding 300 μL of reagent diluent to each well and then incubating at room temperature for a minimum of 1 h. This aspiration was repeated again and then the plate was ready for sample addition.
# The cells (U87MG and T98G) were treated for 48 h and the supernatants were collected; 100 μL of these samples were added per well and incubated for 2 h at room temperature. […] The optical density of each well was measured immediately by an Elisa reader (λexc = 450 nm).
# T98G cells = assay: Neurosphere assay; assay type: cell-based, human; details: T98G, 20, 80 and 160 μM
# Experimental: The neurosphere assay is one of the best methods for analysing the stem cell capacity of isolated brain cells.[23] The stem cell media was used to grow T98G cells through single-cell division within 3 days and subsequently the development of small-diameter “neurosphere-like” tumour spheres within 7 days. After 12–14 days of culture, a phase-contrast microscope was used to take the image of the tumour spheres. To promote differentiation, DMEM (containing 10% FBS) medium was added to the tumour spheres.
# Fig. 5 Neurosphere assay using different concentrations: (b) 20 μM, (c) 80 μM and (d) 160 μM of complex 4c against the T98G cell line; (a) pre-treatment (concentration of 4c = 0 μM).
# Serum-free DMEM/F-12 (1 : 1), B27 (1 : 50), EGF (20 μg L^−1), bFGF (20 μg L^−1), antibiotic (Gibco) were added to stem cell media. The cells were grown in a tissue culture incubator with 5% CO2 at […]. Serum-free media were changed twice a week.
# T98 = assay: MTT cytotoxicity assay, T98; assay type: cell-based, human; details: 72 h incubation
# Experimental: The cytotoxic activity of prepared RAPTA complexes (4a–4h) was evaluated by following the standard procedure of the MTT experiment against a series of glioblastoma cells (LN 229, T98, U87MG) in triplicate. In order to accomplish this study, cells were maintained for 72 h with complexes of various concentrations ranging from 2–160 μM, taking cisplatin as a typical positive control.[22]
# RAPTA complexes were dissolved in 1% DMSO, and 0.9% NaCl aqueous solution was used to dissolve cisplatin. A cell suspension was prepared and the number of cells taken was 2.5 × 10^4 mL^−1. The cells were seeded in 96-well plates (200 μL per well) and allowed 80% confluence prior to treatment. The cells were formerly treated with various concentrations (2.5–160 μM) of complex 4a–h while the control group was treated with PBS […]. After the 72 hours of incubation, 0.5% MTT solution was added to each well (20 μL) and further incubated for 4 hours at […]. The formazan crystals that were formed were dissolved in 150 μL DMSO and then the OD was measured by a microplate reader at 540 nm. The % growth inhibition of the control and treated cells were calculated and represented as the growth inhibition percentage as explained below.% growth inhibition = 100 − [(AD × 100)/AB]where AD is the absorbance measured in wells containing the treated and control samples and AB is the measured absorbance for the wells with media and a vehicle that served as the blank. IC50 was calculated using Graphpad Prism (version 6.0) where % cell viability was plotted against drug concentration.
Compound,"Ksv, Stern-Volmer quenching constant (EtBr-bound DNA (Ct-DNA))","Ksv, Stern-Volmer quenching constant (EtBr-bound DNA (Ct-DNA); Table S2)","Kapp, apparent DNA binding constant (EtBr-bound DNA (Ct-DNA))","Kapp, apparent DNA binding constant (EtBr-bound DNA (Ct-DNA); Table S2)",VEGF concentration with the increase in complex concentration (VEGF),effect on neurospheres (T98G cells),IC50 (T98)
"C1N2CN3CN1CP(C2)C3.Cc1ccc(C(C)C)cc1.Cc1ccnc2c1ccc1c(C)ccnc12.F[P-](F)(F)(F)(F)F.F[P-](F)(F)(F)(F)F.[Ru+2] [4c, [(η^6-p-Cymene)Ru^II(κ^2-N,N-4,7dimethylphenanthroline)(PTA)]·2PF6]",180 M⁻¹,180 M⁻¹,1.38e+06 M⁻¹,1.38e+06 M⁻¹,constant decrease,Complete developmental neurotoxicity,970 ± 20 nM
"C1N2CN3CN1CP(C2)C3.Cc1ccc(C(C)C)cc1.F[P-](F)(F)(F)(F)F.F[P-](F)(F)(F)(F)F.[Ru+2].c1ccc(-c2ccnc3c2ccc2c(-c4ccccc4)ccnc23)cc1 [4d, [(η^6-p-Cymene)Ru^II(κ^2-N,N-4,7diphenylphenanthroline)(PTA)]·2PF6]",,,,,constant decrease,,940 ± 20 nM
